Experimental data: patent publication EP1296974B1, “2-CYANOPYRROLIDINE DERIVATIVES AND THEIR USE AS MEDICAMENTS” (NOVARTIS AG, priority 2000, dated 2001)
Counter-ions that a name gives are not always drawn.

How the values were obtained:
rat plasma DPP-IV = biological target: T1, rat plasma DPP-IV (Rattus norvegicus, UniProt P14740); experiment: DPP-IV activity in rat plasma (modified Kubota assay); type: biochemical; details: substrate H-Glycine-Proline-AMC, 8-point dose-response curves
T1 construct: from tissue; host or cells: rat plasma
Method: (§1) Briefly, 5 µl of plasma are added to 96-well flat-bottom micortiter plates (Falcon), followed by the addition of 5 µl of 80 mM MgCl2 in incubation buffer (25 mMHEPES, 140 mM NaCl, 1% RIA-grade BSA, pH 7.8). After a 60 min. incubation at room temperature, the reaction is initiated by the addition of 10 µl of incubation buffer containing 0.1 mM substrate (H-Glycine-Proline-AMC; AMC is 7-amino-4-methylcoumarin). The plates are covered with aluminum foil (or kept in the dark) and incubated at room temperature for 20 min. […] A fluorescence-concentration curve of free AMC is generated using 0-50 µM solutions of AMC in assay buffer. The curve generated is linear and is used for interpolation of substrate consumption (catalytic activity in nmoles substrate cleaved/min). As with the previous assay, the potency of the test compounds as DPP-IV inhibitors, expressed as IC50, is calculated from 8-point, dose-response curves using a 4 parameter logistic function.

human plasma DPP-IV = biological target: T2, human plasma DPP-IV (Homo sapiens, UniProt P27487); experiment: DPP-IV activity in human plasma (modified Kubota assay); type: biochemical; details: substrate H-Glycine-Proline-AMC, 8-point dose-response curves
T2 construct: from tissue; host or cells: human plasma
Method: as §1

DPP-IV = biological target: T3, DPP-IV (Homo sapiens, UniProt P27487); experiment: Caco-2 DPP-IV Assay (inhibition of DPP-IV activity from human colonic carcinoma cell extracts); type: biochemical; details: Caco-2 cell extract, substrate H-Alanine-Proline-pNA, 8-point dose-response curves
T3 construct: The assay is conducted by adding 20 µg solubilized Caco-2 protein; host or cells: Caco-2 (differentiated), NP-40 solubilized cell extract
Method: The human colonic carcinoma cell line Caco-2 was obtained from the American Type Culture Collection (ATCC HTB 37). Differentiation of the cells to induce DPP-IV expression was accomplished as described by Reisher, et al. in an article entitled "Increased expression of intestinal cell line Caco-2" in Proc. Natl. Acad. Sci., Vol. 90, pgs. […] Cell extract is prepared from cells solubilized in 10mM Tris HCI, 0.15 M NaCl, 0.04 t.i.u.aprotinin, 0.5% nonidet-P40, pH 8.0, which is centrifuged at 35,000 g for 30 min. at 4 °C. to remove cell debris. The assay is conducted by adding 20 µg solubilized Caco-2 protein, diluted to a final volume of 125 µl in assay buffer (25 mM Tris HCI pH 7.4, 140mM NaCl, 10 mM KCI, 1% bovine serum albumin) to microtiter plate wells. After a 60 min. incubation at room temperature, the reaction is initiated by adding 25 µl of 1 mM substrate (H-Alanine-Proline-pNA; pNA is p-nitroaniline). […] A standard curve of free p-nitroaniline is generated using 0-500 µM solutions of free pNA in assay buffer. The curve generated is linear and is used for interpolation of substrate consumption (catalytic activity in nmoles substrate cleaved /min).
The potency of the test compounds as DPP-IV inhibitors, expressed as IC50, is calculated from 8-point, dose-response curves using a 4-parameter logistic function.

[1] = Oral glucose challenge in insulin resistant high fat fed rats: plasma glucose excursion; type: in vivo, Male Sprague-Dawley rats; details: 10 µmol/kg orally; glucose 1 g/kg p.o.; % decrease of area under the plasma glucose curve compared to vehicle-treated control animals
From the text: (§2) More specifically, for example, the compounds of formula 1, and their corresponding pharmaceutically acceptable acid addition salts, improve early insulin response to an oral glucose challenge and, therefore, are useful in treating non-insulin-dependent diabetes mellitus. The ability of the compounds of formula I, and their corresponding pharmaceutically acceptable acid addition salts, to improve early insulin response to an oral glucose challenge may be measured in insulin resistant rats according to the following method:
(§3) Male Sprague-Dawley rats that had been fed a high fat diet (saturated fat = 57% calories) for 2-3 weeks were fasted for approximately 2 hours on the day of testing, divided into groups of 7-10, and dosed orally with 10 µmol/kg of test compound in carboxymethylcellulose. […] Blood samples, obtained at various time-points from chronic jugular vein catheters, were analyzed for plasma glucose concentration. Data are expressed as % decrease of the area under the plasma glucose curve compared to vehicle-treated control animals.

plasma DPP-IV = biological target: T4, plasma DPP-IV (Rattus norvegicus, UniProt P14740); experiment: Plasma DPP-IV activity after oral dosing in insulin resistant rats (oral glucose challenge study); type: in vivo, Male Sprague-Dawley rats; details: 10 µmol/kg orally, ten minutes prior to glucose (1 g/kg p.o.), n=7-8, read-out: inhibition of plasma DPP-IV activity during the study
T4 construct: from tissue; host or cells: plasma of male Sprague-Dawley rats dosed orally (in vivo / ex vivo read-out)
From the text: as §2, §3

T3 sequence (P27487 whole entry): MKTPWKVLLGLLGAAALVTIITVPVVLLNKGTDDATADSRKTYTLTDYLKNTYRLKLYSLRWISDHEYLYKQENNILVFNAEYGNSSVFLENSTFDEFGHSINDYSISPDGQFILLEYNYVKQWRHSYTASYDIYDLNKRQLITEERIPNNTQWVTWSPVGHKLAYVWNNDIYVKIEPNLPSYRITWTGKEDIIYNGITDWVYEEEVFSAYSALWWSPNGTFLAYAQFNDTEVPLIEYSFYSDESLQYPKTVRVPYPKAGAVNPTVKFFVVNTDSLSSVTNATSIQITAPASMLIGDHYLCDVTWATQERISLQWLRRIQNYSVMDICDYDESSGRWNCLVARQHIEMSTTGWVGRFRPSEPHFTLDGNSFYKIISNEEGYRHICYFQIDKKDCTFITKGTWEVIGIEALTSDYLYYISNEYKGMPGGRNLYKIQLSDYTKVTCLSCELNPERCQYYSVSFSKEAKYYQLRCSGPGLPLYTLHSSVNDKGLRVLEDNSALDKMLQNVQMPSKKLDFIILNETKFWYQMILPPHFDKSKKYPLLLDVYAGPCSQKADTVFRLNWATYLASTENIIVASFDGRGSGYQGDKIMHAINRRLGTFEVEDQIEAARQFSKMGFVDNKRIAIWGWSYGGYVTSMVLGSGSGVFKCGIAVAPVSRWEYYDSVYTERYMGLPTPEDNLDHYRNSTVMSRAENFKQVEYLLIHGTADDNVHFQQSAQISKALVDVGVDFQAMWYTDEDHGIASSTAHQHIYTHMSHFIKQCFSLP
T1 sequence (P14740 37-767 limits assumed): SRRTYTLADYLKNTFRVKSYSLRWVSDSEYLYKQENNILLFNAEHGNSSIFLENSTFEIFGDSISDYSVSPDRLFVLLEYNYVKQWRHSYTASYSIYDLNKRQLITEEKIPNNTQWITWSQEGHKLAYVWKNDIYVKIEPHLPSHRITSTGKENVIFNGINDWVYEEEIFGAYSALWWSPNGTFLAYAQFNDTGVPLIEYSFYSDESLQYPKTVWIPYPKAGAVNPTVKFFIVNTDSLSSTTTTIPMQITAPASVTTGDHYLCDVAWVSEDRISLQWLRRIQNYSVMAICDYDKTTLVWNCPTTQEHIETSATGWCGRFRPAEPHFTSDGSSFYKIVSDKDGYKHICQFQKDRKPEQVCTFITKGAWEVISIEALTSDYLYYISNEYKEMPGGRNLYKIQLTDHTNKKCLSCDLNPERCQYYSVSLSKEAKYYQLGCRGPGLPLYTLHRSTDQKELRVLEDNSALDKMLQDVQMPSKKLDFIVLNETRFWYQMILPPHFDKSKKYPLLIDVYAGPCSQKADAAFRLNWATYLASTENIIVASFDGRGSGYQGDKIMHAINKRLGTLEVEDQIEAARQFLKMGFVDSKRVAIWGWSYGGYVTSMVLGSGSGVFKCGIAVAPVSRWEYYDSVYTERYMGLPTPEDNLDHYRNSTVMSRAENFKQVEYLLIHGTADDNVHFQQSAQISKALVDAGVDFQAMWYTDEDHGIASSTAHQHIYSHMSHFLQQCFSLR
T2 sequence (P27487 39-766 limits assumed): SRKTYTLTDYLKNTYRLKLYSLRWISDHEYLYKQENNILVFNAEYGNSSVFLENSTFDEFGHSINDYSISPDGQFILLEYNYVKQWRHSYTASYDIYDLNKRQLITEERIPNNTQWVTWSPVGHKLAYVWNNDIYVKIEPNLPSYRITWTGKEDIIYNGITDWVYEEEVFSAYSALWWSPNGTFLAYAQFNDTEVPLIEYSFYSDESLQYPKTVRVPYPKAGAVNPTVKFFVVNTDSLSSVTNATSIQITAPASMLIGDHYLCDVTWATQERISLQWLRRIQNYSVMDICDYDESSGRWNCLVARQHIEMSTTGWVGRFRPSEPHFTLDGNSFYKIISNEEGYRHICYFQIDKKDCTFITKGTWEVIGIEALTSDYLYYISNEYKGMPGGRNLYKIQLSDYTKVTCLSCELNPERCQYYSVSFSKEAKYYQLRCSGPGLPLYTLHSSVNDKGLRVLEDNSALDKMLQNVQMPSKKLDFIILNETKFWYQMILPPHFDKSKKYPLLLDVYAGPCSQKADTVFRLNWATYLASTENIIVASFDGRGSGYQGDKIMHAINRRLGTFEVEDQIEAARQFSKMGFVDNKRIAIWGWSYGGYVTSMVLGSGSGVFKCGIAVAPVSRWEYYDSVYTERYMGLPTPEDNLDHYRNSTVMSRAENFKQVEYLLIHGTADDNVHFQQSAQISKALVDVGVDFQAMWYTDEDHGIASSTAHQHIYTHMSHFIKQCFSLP
T4 sequence (P14740 37-767 limits assumed): as the sequence (P14740 37-767 limits assumed) above

Structure (SMILES)	IC50 (rat plasma DPP-IV) [nM]	IC50 (human plasma DPP-IV) [nM]	IC50 (DPP-IV) [nM]	inhibition at 10 µmol/kg (plasma DPP-IV) [%]	Decrease of plasma glucose excursion at 10 µmovkg (p=0.01) [1] [%]
CC(C)(CNc1ccc(Cl)cn1)NCC(=O)N1CCC[C@H]1C#N [Ex. 1, 1-[[[2-[(5-Chloro-2-pyridinyl)amino]-1,1-dimethylethyl]amino]acetyl]-2-cyano-(S)-pyrrolidine, monohydrochloride]	6	30	2	–	–
N#C[C@@H]1CCCN1C(=O)CNC1CCC(Oc2ccc(C(F)(F)F)cc2)CC1 (stereo partly drawn) [Ex. 2EE, 1-[[[4-[4-(trifluoromethyl)phenoxy]cyclohexyl]amino]acetyl]-2-cyano-(S)-pyrrolidine, monohydrochloride]	46	150	23	–	–
N#C[C@@H]1CCCN1C(=O)CNC1CCC(NS(=O)(=O)c2ccccc2)CC1 (stereo partly drawn) [Ex. 2M, 1-[[[4-[(phenylsulfonyl)amino]cyclohexyl]amino]acetyl]-2-cyano-(S)-pyrrolidine, monohydrochloride]	6	10	34	–	–
N#C[C@@H]1CCCN1C(=O)CNC1CCC(Nc2ccnc(Cl)n2)CC1 (stereo partly drawn) [Ex. 2S, 1-[[[4-[(2-chloro-4-pyrimidinyl)amino]cyclohexyl]amino]acetyl]-2-cyano-(S)-pyrrolidine, dihydrochloride]	2	4	3	–	–
CC(C)(C)C(=O)NC1CCC(NCC(=O)N2CCC[C@H]2C#N)CC1 (stereo partly drawn) [Ex. 2U, 1-[[[4-[(2,2-dimethyl-1-oxopropyl)amino]cyclohexyl]amino]acetyl]-2-cyano-(S)-pyrrolidine, monohydrochloride]	14	27	39	–	–
N#Cc1ccc(NC2CCC(NCC(=O)N3CCC[C@H]3C#N)CC2)cc1 (stereo partly drawn) [Ex. 2W, 1-[[[4-[(4-cyanophenyl)amino]cyclohexyl]amino]acetyl]-2-cyano-(S)-pyrrolidine, dihydrochloride]	7	19	13	–	–

Now from value to molecule, other results behind:

IC50 (rat plasma DPP-IV) [nM]	IC50 (human plasma DPP-IV) [nM]	IC50 (DPP-IV) [nM]	inhibition at 10 µmol/kg (plasma DPP-IV) [%]	Structure (SMILES)	Decrease of plasma glucose excursion at 10 µmovkg (p=0.01) [1] [%]
5	10	5	80	N#C[C@@H]1CCCN1C(=O)CNC1CCC(NC(=O)c2ccccc2)CC1 (stereo partly drawn) [Ex. 2N, 1-[[[4-(benzoylamino)cyclohexyl]amino]acetyl]-2-cyano-(S)-pyrrolidine]	39
37	124	12	–	N#C[C@@H]1CCCN1C(=O)CNC1CCC(Nc2nc3cc(Cl)ccc3s2)CC1 (stereo partly drawn) [Ex. 2Y, 1-[[[4-[(5-chloro-2-benzothiazolyl)amino]cyclohexyl]amino]acetyl]-2-cyano-(S)-pyrrolidine, dihydrochloride]	–
107	204	124	–	N#C[C@@H]1CCCN1C(=O)CNC1CCN(S(=O)(=O)c2ccc(Cl)cc2)CC1 [Ex. 3, 1-[[[1-[(4-Chlorophenyl)sulfonyl]-4-piperidinyl]amino]acetyl]-2-cyano-(S)-pyrrolidine, monohydrochloride]	–
